The values that follow are results of earlier work, collected in US6020328A, “20-keto-11β-arylsteroids and their derivatives having agonist or antagonist hormonal properties” (Research Triangle Institute, priority 1998, dated 2000).

The test system of the data set is rabbits. The settings on record: in words; Cook et al., Human Reproduction 1994; cited from earlier work.

With `CC(=O)O[C@]1(C(C)=O)CC[C@H]2[C@@H]3CCC4=CC(=O)CCC4=C3[C@@H](c3ccc(N(C)C)cc3)C[C@@]21C` [17α-acetoxy-11β-(4-(N,N-dimethylamino)phenyl)-19-norpregna-4,9-diene-3,20-dione], the antiprogestational activity result is on record as “potent antiprogestational activity”.
